Source: patent US20080249136A1, “Antimicrobial Composition and Method” (priority 2005, published 2008)

Assays:
[1] = system: Staphylococcus aureus ATCC #6538; assay: Efficacy (log kill) against Staphylococcus aureus, 96-well assay block; assay type: cell-based
Experimental: (§1) The cationic polymers are pH adjusted in the range of 6-7.5. It should be noted that the Ecopol polymers require an acidic environment for complete dissolution. Once the polymer is dissolved, NaOH can be used to bring the pH to the desired range.
(§2) The efficacy of the antimicrobial combinations against Staphylococcus aureus ATCC #6538 and Pseudomonas aeruginosa ATCC #10145 is measured. Testing is done in 96-well 1.5 ml polypropylene assay blocks using 96-well polypropylene sealing mats for covering the samples during incubation. The individual wells in the 96-well assay block are identified as follows: 12 columns numbered 1-12 across the top row of wells on the block, and 8 rows lettered A-H on the first column of the block. Columns 1 and 2 are reserved to test the activity of the biocide in buffer (pH 7.2) in the absence of the cationic polymer. Columns 11 and 12 are always reserved as control, to verify growth of the microorganism in the absence of the biocide. The preparation of the assay blocks involves the following steps in chronological order:
(§3) 1. Preparation of the biocide solution in an appropriate solvent at a concentration equal to 10 times the final concentration desired in row A; 2. Addition of predetermined amount of the stock biocide solution to each well in row A; 3. Addition of a predetermined amount of the solvent to rows B-H and wells 11A and 12A; 4. Serial dilution of the biocide, by transferring a predetermined amount of the solution from row A to row B, mixing, and repeating the transfer down all the rows. After the mixing step in row H, the transferring amount is taken out and disposed of; 5. Inoculation of the buffer and polymer solutions with the test organism. For bacteria, a 24-hour culture is used. Following the incubation period, the organism concentration in the medium is determined by reading the OD at 620 nm. This culture is used to inoculate the buffer and the polymer solution to a bacterial concentration of 1E6 cfu/ml. Fungal challenges are performed with fungal spores isolated from inoculated SDA slants. The spores are collected by swiping the slant with a sterile cotton swab and re-suspended in tryptic soy broth. Tween 80 is added to aid in spore separation and the suspension was homogenized. The spore concentration is obtained by use of a hemacytometer. This suspension is used to inoculate the buffer and the polymeric solutions to a spore concentration of 3-5E6 cfu/ml; 6. Addition of the inoculated buffer or polymer solution to each well. 7. Thorough mixing of the blends in each well; 8. Sampling for the time 0, 24 h, 48 h and 7 days reading is accomplished using a 96-well 300 μl polystyrene microplate. Tryptic Soy broth (TSB) is used for the bacterial studies and Malt (YM) broth buffered at pH 7.4 for fungal studies; 9. The microplates are incubated at 35° C. for bacteria and 30° C. for fungus, until the control samples show adequate growth; and 10. Data is recorded as the log reduction in microorganism concentration relative to the inoculum.

[2] = system: Pseudomonas aeruginosa ATCC #10145; assay: Efficacy (log kill) against Pseudomonas aeruginosa, 96-well assay block; assay type: cell-based
Experimental: as §1, §2, §3

Oc1ccccc1-c1ccccc1 [OPP, ortho-phenylphenol]
Log kill 24 h ([1]; Active Conc. 124 ppm): 2 log | Log kill 48 h ([1]; Active Conc. 124 ppm): 2 log | Log kill 7 days ([1]; Active Conc. 124 ppm): 6 log | Log kill t0 ([1]; Active Conc. 124 ppm): 0 log | Log kill 24 h ([1]; Active Conc. 182.2 ppm): 6 log | Log kill 48 h ([1]; Active Conc. 182.2 ppm): 6 log | Log kill 7 days ([1]; Active Conc. 182.2 ppm): 6 log | Log kill t0 ([1]; Active Conc. 182.2 ppm): 1 log | Log kill 24 h ([1]; Active Conc. 278.9 ppm): 3.5 log | Log kill 48 h ([1]; Active Conc. 278.9 ppm): 3 log | Log kill 7 days ([1]; Active Conc. 278.9 ppm): 4 log | Log kill t0 ([1]; Active Conc. 278.9 ppm): 0.5 log | Log kill 24 h ([1]; Active Conc. 418.4 ppm): 6 log | Log kill 48 h ([1]; Active Conc. 418.4 ppm): 6 log | Log kill 7 days ([1]; Active Conc. 418.4 ppm): 4 log | Log kill t0 ([1]; Active Conc. 418.4 ppm): 6 log | Log kill 24 h ([2]; Active Conc. 130.2 ppm): 0 log | Log kill 48 h ([2]; Active Conc. 130.2 ppm): 1 log | Log kill 7 days ([2]; Active Conc. 130.2 ppm): 1.5 log | Log kill t0 ([2]; Active Conc. 130.2 ppm): 0 log | Log kill 24 h ([2]; Active Conc. 182.2 ppm): 1.5 log | Log kill 48 h ([2]; Active Conc. 182.2 ppm): 2.5 log | Log kill 7 days ([2]; Active Conc. 182.2 ppm): 2.5 log | Log kill t0 ([2]; Active Conc. 182.2 ppm): 1.5 log | Log kill 24 h ([2]; Active Conc. 222.2 ppm): 4.5 log | Log kill 48 h ([2]; Active Conc. 222.2 ppm): 3.5 log | Log kill 7 days ([2]; Active Conc. 222.2 ppm): 4 log | Log kill t0 ([2]; Active Conc. 222.2 ppm): 4 log
